Drawing on patent US11420966B2 (ACLARIS THERAPEUTICS, INC., priority 2019, dated 2022), this text covers IC50 for 15 compounds.

One test has as its target JAK1 (Homo sapiens (Human), UniProt P23458). Briefly: JAK1 enzyme activity assay (Thermo Fisher SelectScreen, Z-lyte). The test is classed as biochemical. To be noted: read-out: JAK1 Inhibition IC50. The essentials: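 Z-lyte assay with 21.2-91.5 ng JAK and […] Tyr 06 in 50 mM HEPES pH 7.0, 10 mM MgCl2, 1 mM EGTA, 0.01% BRIJ-35; 1 h kinase reaction, then development reagent. 11-point dose-response from […] to 0.34 nM, 2% DMSO vehicle; IC50 from 4-parameter logistic fit of emission ratio.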

Test [1] deals with IL-12 stimulated STAT4 phosphorylation on Tyr693 (JAK2/TYK2). Briefly: JAK2/TYK2 cellular target modulation: IL-12 stimulated phospho-STAT4 in PBMC. The test is classed as cell-based. To be noted: human PBMC, IL-12 1.7 ng/ml; read-out: IL12-STAT4 IC50. The essentials: (§1)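 Thawed human PBMC (200,000/well, RPMI/10% FBS) were preincubated with compound for 1 h at 37 °C, added from 10× stocks in 1% DMSO. Stimulation and read-out: IL-2 25 ng/ml, 5 min, pSTAT5 by MSD; IL-12 1.7 ng/ml, 25 min, pSTAT4 by MSD; IFNγ 10 ng/ml, 10 min, pSTAT1 by sandwich ELISA.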

The next test addresses Tyk-2 (Homo sapiens (Human), UniProt P29597). The experiment in a line: Tyk-2 enzyme activity assay (Thermo Fisher SelectScreen, Z-lyte). The test is classed as biochemical. Conditions: read-out: Tyk-2 Inhibition IC50. The essentials:
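Z-lyte FRET assay: 3.75–15 ng TYK2 with […] Tyr 03 peptide in HEPES pH 7.0, MgCl2, EGTA, BRIJ-35; 1 h reaction, then development reagent. 11-point dose-response, 2% DMSO; IC50 via 4-parameter fit of emission ratio, background without enzyme.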

The target of a further test is JAK3 (a.a. 781-1124) (Homo sapiens (Human), UniProt P52333). The experiment in a line: JAK3 enzyme activity assay (SRCtide phosphorylation, Caliper). It counts as biochemical. Conditions: 1 uM ATP; read-out: JAK3 Inhibition IC50.
The test system of test [2] is IL-2 stimulated STAT5 phosphorylation on Tyr694 (JAK1/3). The experiment in a line: JAK1/3 cellular target modulation: IL-2 stimulated phospho-STAT5 in PBMC. To be noted: human PBMC, IL-2 25 ng/ml; read-out: IL2-STAT5 IC50. The test is classed as cell-based. In outline: as §1
The test system of test [3] is IFNγ stimulated STAT1 phosphorylation on Tyr701 (JAK1/2). Briefly: JAK1/2 cellular target modulation: IFNγ stimulated phospho-STAT1 in PBMC. The test is classed as cell-based. Conditions: human PBMC, IFNγ 10 ng/ml; read-out: Infγ-STAT1 IC50. In outline:
as §1

Another test concerns the target JAK2 (Homo sapiens (Human), UniProt O60674). Briefly: JAK2 enzyme activity assay (Thermo Fisher SelectScreen, Z-lyte). Conditions: read-out: JAK2 Inhibition IC50. The test is classed as biochemical. In outline: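 Z-lyte FRET kinase assay: 0.12-0.5 ng JAK2 with […] Tyr 06 peptide in 50 mM HEPES pH 7.5, 0.01% BRIJ-35, 10 mM MgCl2, 1 mM EGTA, 1 h reaction before development reagent. 11-point dose-response from […] to 0.34 nM, 2% DMSO; IC50 from 4-parameter fit of emission ratio.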

The structures appear in SMILES notation. Bounds are passed on as bounds.

A word on the IC50: it is the concentration needed to halve the response being measured.

Sequence of Tyk-2 (P29597 whole entry): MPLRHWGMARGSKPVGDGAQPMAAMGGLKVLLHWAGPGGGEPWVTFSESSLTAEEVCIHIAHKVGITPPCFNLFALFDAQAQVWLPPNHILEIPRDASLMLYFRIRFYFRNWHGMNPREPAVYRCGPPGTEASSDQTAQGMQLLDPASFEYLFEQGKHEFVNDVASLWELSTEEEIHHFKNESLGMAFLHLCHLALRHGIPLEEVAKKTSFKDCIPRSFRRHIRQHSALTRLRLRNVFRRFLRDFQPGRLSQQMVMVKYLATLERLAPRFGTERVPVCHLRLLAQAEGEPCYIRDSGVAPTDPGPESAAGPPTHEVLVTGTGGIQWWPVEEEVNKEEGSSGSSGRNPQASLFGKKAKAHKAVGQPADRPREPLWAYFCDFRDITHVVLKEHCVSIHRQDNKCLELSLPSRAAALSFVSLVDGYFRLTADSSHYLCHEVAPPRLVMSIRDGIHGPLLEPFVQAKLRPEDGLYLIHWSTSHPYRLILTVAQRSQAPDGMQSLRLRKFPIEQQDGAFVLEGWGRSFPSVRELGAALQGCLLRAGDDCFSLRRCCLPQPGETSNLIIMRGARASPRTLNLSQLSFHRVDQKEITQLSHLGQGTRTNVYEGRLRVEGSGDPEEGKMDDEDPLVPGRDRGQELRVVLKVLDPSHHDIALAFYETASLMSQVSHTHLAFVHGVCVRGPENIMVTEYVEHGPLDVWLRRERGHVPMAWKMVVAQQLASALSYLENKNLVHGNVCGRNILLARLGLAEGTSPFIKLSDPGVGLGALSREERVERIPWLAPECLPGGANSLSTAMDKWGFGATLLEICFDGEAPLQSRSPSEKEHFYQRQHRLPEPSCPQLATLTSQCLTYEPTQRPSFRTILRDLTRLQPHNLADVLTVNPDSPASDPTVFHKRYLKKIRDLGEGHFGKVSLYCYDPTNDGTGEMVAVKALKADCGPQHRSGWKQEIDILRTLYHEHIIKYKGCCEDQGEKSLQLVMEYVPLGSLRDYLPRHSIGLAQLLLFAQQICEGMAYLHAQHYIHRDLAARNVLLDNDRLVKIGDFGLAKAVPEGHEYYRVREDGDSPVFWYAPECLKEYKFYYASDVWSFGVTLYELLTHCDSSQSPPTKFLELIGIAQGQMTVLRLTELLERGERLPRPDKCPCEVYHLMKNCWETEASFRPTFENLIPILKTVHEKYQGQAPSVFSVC
Sequence of JAK2 (O60674 whole entry): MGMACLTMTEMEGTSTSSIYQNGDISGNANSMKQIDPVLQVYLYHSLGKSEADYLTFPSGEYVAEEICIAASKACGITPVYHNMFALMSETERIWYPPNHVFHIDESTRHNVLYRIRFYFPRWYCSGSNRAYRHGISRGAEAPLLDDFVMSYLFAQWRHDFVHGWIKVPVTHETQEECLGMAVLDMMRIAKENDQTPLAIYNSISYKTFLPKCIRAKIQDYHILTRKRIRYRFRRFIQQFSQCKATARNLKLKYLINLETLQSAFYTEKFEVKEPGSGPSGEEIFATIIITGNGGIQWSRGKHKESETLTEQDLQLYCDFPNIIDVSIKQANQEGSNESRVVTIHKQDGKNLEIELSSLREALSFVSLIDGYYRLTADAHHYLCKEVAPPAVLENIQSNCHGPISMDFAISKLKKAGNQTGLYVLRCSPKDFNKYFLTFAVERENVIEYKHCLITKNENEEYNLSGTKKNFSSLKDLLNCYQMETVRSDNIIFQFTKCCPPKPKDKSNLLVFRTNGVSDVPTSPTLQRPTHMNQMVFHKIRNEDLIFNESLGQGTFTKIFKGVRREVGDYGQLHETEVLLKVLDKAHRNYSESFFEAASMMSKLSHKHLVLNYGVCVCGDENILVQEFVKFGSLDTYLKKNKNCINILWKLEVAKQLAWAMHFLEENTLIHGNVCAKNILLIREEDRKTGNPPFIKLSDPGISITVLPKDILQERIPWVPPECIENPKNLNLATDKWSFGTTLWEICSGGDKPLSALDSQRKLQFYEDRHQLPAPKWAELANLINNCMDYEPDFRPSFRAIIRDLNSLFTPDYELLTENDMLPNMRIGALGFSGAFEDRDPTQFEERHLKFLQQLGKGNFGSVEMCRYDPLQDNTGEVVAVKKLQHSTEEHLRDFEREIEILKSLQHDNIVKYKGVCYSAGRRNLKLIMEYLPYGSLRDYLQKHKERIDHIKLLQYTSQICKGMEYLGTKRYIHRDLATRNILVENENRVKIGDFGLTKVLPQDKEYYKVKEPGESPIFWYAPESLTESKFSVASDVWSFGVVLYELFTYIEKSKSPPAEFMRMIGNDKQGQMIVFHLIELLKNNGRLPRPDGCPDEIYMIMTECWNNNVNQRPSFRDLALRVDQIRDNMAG
Sequence of JAK3 (a.a. 781-1124) (P52333 781-1124): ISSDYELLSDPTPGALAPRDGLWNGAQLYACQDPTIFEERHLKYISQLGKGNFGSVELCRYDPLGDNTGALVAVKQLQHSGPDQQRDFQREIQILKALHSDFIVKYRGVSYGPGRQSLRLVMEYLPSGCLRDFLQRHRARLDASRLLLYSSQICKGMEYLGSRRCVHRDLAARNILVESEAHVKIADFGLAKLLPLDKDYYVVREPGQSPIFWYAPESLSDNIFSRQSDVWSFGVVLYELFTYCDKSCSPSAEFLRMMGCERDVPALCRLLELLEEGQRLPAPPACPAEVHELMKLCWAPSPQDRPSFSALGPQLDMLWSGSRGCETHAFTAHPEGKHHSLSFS
Sequence of JAK1 (P23458 whole entry): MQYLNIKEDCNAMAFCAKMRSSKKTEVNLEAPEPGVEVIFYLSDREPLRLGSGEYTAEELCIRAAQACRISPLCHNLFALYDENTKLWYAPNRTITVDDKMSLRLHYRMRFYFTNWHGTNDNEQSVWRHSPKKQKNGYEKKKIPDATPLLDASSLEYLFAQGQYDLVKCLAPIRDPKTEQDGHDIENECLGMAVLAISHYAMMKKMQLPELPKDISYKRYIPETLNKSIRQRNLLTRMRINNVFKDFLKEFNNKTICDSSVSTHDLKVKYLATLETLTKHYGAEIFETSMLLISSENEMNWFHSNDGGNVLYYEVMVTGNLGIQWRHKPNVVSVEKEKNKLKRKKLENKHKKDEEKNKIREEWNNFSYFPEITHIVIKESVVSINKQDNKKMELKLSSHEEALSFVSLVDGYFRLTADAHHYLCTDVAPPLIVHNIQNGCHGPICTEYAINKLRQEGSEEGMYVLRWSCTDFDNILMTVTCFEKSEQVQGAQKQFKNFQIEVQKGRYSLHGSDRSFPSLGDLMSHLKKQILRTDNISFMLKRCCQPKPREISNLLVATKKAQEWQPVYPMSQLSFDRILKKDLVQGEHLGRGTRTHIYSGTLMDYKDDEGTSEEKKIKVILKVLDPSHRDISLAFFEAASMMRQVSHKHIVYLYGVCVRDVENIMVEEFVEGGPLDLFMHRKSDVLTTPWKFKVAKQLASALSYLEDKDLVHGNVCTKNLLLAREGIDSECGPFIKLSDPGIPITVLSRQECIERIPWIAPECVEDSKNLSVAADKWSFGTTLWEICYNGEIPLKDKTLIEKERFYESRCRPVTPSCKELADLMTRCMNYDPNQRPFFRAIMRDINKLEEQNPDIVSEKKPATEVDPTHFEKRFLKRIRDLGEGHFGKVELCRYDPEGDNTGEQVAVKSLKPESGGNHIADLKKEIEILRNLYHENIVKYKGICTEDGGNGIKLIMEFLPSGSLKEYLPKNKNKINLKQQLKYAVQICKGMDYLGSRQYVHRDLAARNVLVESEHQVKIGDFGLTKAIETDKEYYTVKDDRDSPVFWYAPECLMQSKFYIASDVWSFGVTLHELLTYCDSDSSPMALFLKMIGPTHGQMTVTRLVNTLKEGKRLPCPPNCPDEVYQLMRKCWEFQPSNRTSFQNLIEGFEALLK

Take `N#CCC(=O)N1CCC[C@@H](Nc2c(-c3ccn(CCO)n3)cnc3[nH]ccc23)C1` [Example 62, (R)-3-(3-((5-(1-(2-hydroxyethyl)-1H-pyrazol-3-yl)-1H-pyrrolo[2,3-b]pyridin-4-yl)amino)piperidin-1-yl)-3-oxopropanenitrile]: the IC50 on JAK1 is at most 0.01 µM; in test [1], above 1 µM; on Tyk-2, 0.01 to 0.1 µM; on JAK3 (a.a. 781-1124), at most 0.01 µM; in test [2] it was at most 0.1 µM; in test [3], 0.1 to 1 µM. In addition, on JAK2, the concentration for half-maximal inhibition (IC50) is at most 0.01 µM.

Take `Cc1cc(-c2cnc3[nH]ccc3c2N[C@@H]2CCCN(C(=O)CC#N)C2)[nH]n1` [Example 26, (R)-3-(3-((5-(3-methyl-1H-pyrazol-5-yl)-1H-pyrrolo[2,3-b]pyridin-4-yl)amino)piperidin-1-yl)-3-oxopropanenitrile]: the IC50 on JAK1 is at most 0.01 µM; in test [1] it was above 1 µM; on Tyk-2, 0.01 to 0.1 µM; at JAK3 (a.a. 781-1124) it was 0.01 to 0.1 µM; in test [2], at most 0.1 µM; in test [3] it was 0.1 to 1 µM. On JAK2, the IC50 is 0.01 to 0.1 µM.

`C[C@H]1CC[C@@H](Nc2c(-c3ncco3)cnc3[nH]ccc23)CN1C(=O)CC#N` [Example 28, 3-((2S,5R)-2-methyl-5-((5-(oxazol-2-yl)-1H-pyrrolo[2,3-b]pyridin-4-yl)amino)piperidin-1-yl)-3-oxopropanenitrile]: the IC50 on JAK1 was at most 0.01 µM; in test [1] it was 0.1 to 1 µM; at Tyk-2 it was at most 0.01 µM; on JAK3 (a.a. 781-1124), at most 0.01 µM; in test [2], at most 0.1 µM; in test [3], at most 0.1 µM. Also, the IC50 at JAK2 was at most 0.01 µM.

`C[C@H]1C[C@@H](Nc2c(-c3nncs3)cnc3[nH]ccc23)CN(C(=O)CC#N)C1` [Example 68, 3-((3R,5S)-3-((5-(1,3,4-thiadiazol-2-yl)-1H-pyrrolo[2,3-b]pyridin-4-yl)amino)-5-methylpiperidin-1-yl)-3-oxopropanenitrile]: the IC50 at JAK1 is at most 0.01 µM; in test [1], at most 0.1 µM; at Tyk-2, at most 0.01 µM; on JAK3 (a.a. 781-1124) it was at most 0.01 µM; in test [2], at most 0.1 µM; in test [3] it was at most 0.1 µM. Besides, the half-inhibitory concentration (IC50) on JAK2 was at most 0.01 µM.

In the case of `C[C@H]1C[C@@H](Nc2c(-c3cccc(CO)n3)cnc3[nH]ccc23)CN(C(=O)CC#N)C1` [Example 64, 3-((3R,5S)-3-((5-(6-(hydroxymethyl)pyridin-2-yl)-1H-pyrrolo[2,3-b]pyridin-4-yl)amino)-5-methylpiperidin-1-yl)-3-oxopropanenitrile], the IC50 at JAK1 was at most 0.01 µM; in test [1], above 1 µM; at Tyk-2, at most 0.01 µM; at JAK3 (a.a. 781-1124), at most 0.01 µM; in test [2] it was at most 0.1 µM; in test [3] it was at most 0.1 µM. Further, the IC50 on JAK2 was at most 0.01 µM.

`NC(=O)c1coc(-c2cnc3[nH]ccc3c2N[C@H]2CC[C@@H](O)C2)n1` [Example 29, 2-(4-(((1S,3R)-3-hydroxycyclopentyl)amino)-1H-pyrrolo[2,3-b]pyridin-5-yl)oxazole-4-carboxamide]: the IC50 on JAK1 is 0.01 to 0.1 µM; in test [1], above 1 µM; at Tyk-2, 0.1 to 1 µM; on JAK3 (a.a. 781-1124) it was at most 0.01 µM; in test [2], at most 0.1 µM; in test [3] it was 0.1 to 1 µM. In addition, the IC50 on JAK2 was in the range of 0.01 to 0.1 µM.

With `CS(=O)(=O)c1cnc(-c2cnc3[nH]ccc3c2N[C@@H]2CCCN(C(=O)CC#N)C2)s1` [Example 46, (R)-3-(3-((5-(5-(methylsulfonyl)thiazol-2-yl)-1H-pyrrolo[2,3-b]pyridin-4-yl)amino)piperidin-1-yl)-3-oxopropanenitrile], the 50% inhibitory concentration (IC50) on JAK1 was at most 0.01 µM; in test [1], 0.1 to 1 µM; on Tyk-2 it was at most 0.01 µM; at JAK3 (a.a. 781-1124), at most 0.01 µM; in test [2], at most 0.1 µM; in test [3], at most 0.1 µM. Also, the IC50 on JAK2 was at most 0.01 µM.

As for `Cc1ccc(-c2cnc3[nH]ccc3c2N[C@@H]2CCCN(C(=O)CC#N)C2)nc1` [Example 22, (R)-3-(3-((5-(5-methylpyridin-2-yl)-1H-pyrrolo[2,3-b]pyridin-4-yl)amino)piperidin-1-yl)-3-oxopropanenitrile], the IC50 at JAK1 was 0.01 to 0.1 µM; in test [1], above 1 µM; at Tyk-2, 0.01 to 0.1 µM; at JAK3 (a.a. 781-1124) it was 0.01 to 0.1 µM; in test [2] it was 0.1 to 1 µM; in test [3], 0.1 to 1 µM. Further, the IC50 at JAK2 was 0.01 to 0.1 µM.

In the case of `N#CCC(=O)N1CCC[C@@H](Nc2c(-c3ccn[nH]3)cnc3[nH]ccc23)C1` [Example 18, (R)-3-(3-((5-(1H-pyrazol-5-yl)-1H-pyrrolo[2,3-b]pyridin-4-yl)amino)piperidin-1-yl)-3-oxopropanenitrile], the IC50 at JAK1 is at most 0.01 µM; in test [1] it was above 1 µM; on Tyk-2 it was 0.01 to 0.1 µM; on JAK3 (a.a. 781-1124), at most 0.01 µM; in test [2], at most 0.1 µM; in test [3], 0.1 to 1 µM. Further, the concentration for half-maximal inhibition (IC50) at JAK2 was in the range of 0.01 to 0.1 µM.

Consider `C[C@H]1C[C@@H](Nc2c(-c3ncc(S(C)(=O)=O)s3)cnc3[nH]ccc23)CN(C(=O)CC#N)C1` [Example 65, 3-((3S,5R)-3-methyl-5-((5-(5-(methylsulfonyl)thiazol-2-yl)-1H-pyrrolo[2,3-b]pyridin-4-yl)amino)piperidin-1-yl)-3-oxopropanenitrile], for which the IC50 at JAK1 was at most 0.01 µM; in test [1] it was at most 0.1 µM; at Tyk-2, at most 0.01 µM; on JAK3 (a.a. 781-1124), at most 0.01 µM; in test [2], at most 0.1 µM; in test [3] it was at most 0.1 µM. For the same compound, the concentration for half-maximal inhibition (IC50) on JAK2 was at most 0.01 µM.

As for `N#CCC(=O)N1CCC[C@@H](Nc2c(-c3ccccn3)cnc3[nH]ccc23)C1` [Example 21, (R)-3-oxo-3-(3-((5-(pyridin-2-yl)-1H-pyrrolo[2,3-b]pyridin-4-yl)amino)piperidin-1-yl)propanenitrile], the 50% inhibitory concentration (IC50) at JAK1 is at most 0.01 µM; in test [1] it was 0.1 to 1 µM; on Tyk-2, 0.01 to 0.1 µM; on JAK3 (a.a. 781-1124) it was 0.01 to 0.1 µM; in test [2] it was at most 0.1 µM; in test [3], 0.1 to 1 µM. In addition, the 50% inhibitory concentration (IC50) at JAK2 was in the range of 0.01 to 0.1 µM.

As to `N#CCC(=O)N1CCC[C@@H](Nc2c(-c3cccc(CO)n3)cnc3[nH]ccc23)C1` [Example 63], the IC50 on JAK1 was at most 0.01 µM; in test [1] it was above 1 µM; on Tyk-2 it was 0.01 to 0.1 µM; on JAK3 (a.a. 781-1124) it was at most 0.01 µM; in test [2], at most 0.1 µM; in test [3], 0.1 to 1 µM. For the same compound, the IC50 at JAK2 was at most 0.01 µM.

Take `C[C@H]1C[C@@H](Nc2c(-c3nccs3)cnc3[nH]ccc23)CN(CC2CC2(F)F)C1` (stereo partly drawn) [Example 67, N-((3R,5S)-1-((2,2-difluorocyclopropyl)methyl)-5-methylpiperidin-3-yl)-5-(thiazol-2-yl)-1H-pyrrolo[2,3-b]pyridin-4-amine]: the half-maximal inhibitory concentration (IC50) on JAK1 was 0.01 to 0.1 µM; in test [1], above 1 µM; on Tyk-2 it was 0.01 to 0.1 µM; at JAK3 (a.a. 781-1124), at most 0.01 µM; in test [2], 0.1 to 1 µM; in test [3] it was 0.1 to 1 µM. Also, on JAK2, the IC50 was 0.01 to 0.1 µM.

In the case of `N#CCC(=O)N1CCC[C@@H](Nc2c(-c3ncon3)cnc3[nH]ccc23)C1` [Example 38, (R)-3-(3-((5-(1,2,4-oxadiazol-3-yl)-1H-pyrrolo[2,3-b]pyridin-4-yl)amino)piperidin-1-yl)-3-oxopropanenitrile], the IC50 is 0.01 to 0.1 µM at JAK1; above 1 µM in test [1]; 0.1 to 1 µM at Tyk-2; 0.01 to 0.1 µM on JAK3 (a.a. 781-1124); 0.1 to 1 µM in test [2]; above 1 µM in test [3]. Further, the 50% inhibitory concentration (IC50) at JAK2 fell in the range of 0.01 to 0.1 µM.

Take `Cc1nccc(-c2cnc3[nH]ccc3c2N[C@@H]2C[C@H](C)CN(C(=O)CC#N)C2)n1` [Example 52, 3-((3S,5R)-3-methyl-5-((5-(2-methylpyrimidin-4-yl)-1H-pyrrolo[2,3-b]pyridin-4-yl)amino)piperidin-1-yl)-3-oxopropanenitrile]: the IC50 on JAK1 was at most 0.01 µM; in test [1] it was 0.1 to 1 µM; on Tyk-2 it was at most 0.01 µM; on JAK3 (a.a. 781-1124), at most 0.01 µM; in test [2], at most 0.1 µM; in test [3], at most 0.1 µM. For the same compound, the IC50 at JAK2 is at most 0.01 µM.
